Laboratory results published in patent publication US11364280B2, “Method for blocking stress-induced tumor progression” (Taipei Veterans General Hospital, priority 2018, dated 2022).
No end group written: not given here.

How the values were obtained:
[1] = test system: MSI1 translocation into the cytosol in 05 MG cells; test: MSI1 subcellular translocation (immunostaining, fractionation immunoblot); type: cell-based, human; conditions: LMB 10 ng/mL, 2 h pre-treatment; hypoxic and cisplatin treatment
Experimental: Magnifying power: 200× (top) and 600× (bottom). Quantitation of cells expressing cytoplasmic or nuclear MSI1 is shown in the bar graph on the right. FIG. 1B 05 MG cells pre-treated with or without nuclear export inhibitor leptomycinB (LMB) (10 ng/mL, 2 h) under normoxia or hypoxia conditions for 24 hr were subjected to anti-MSI1 (green) immunostaining and DAPI (blue) nuclear counterstaining. Images were acquired from Carl Zeiss confocal microscope system. The intensity of green fluorescence in nuclear and cytosol was quantified and shown as relative percentage in the graph at the right. […] FIG. 1D provides a schematic showing the mutation sites in the NLS (orange) and NES (red) of human MSI1. All constructs were sub-cloned into p-3×Flag-Myc-CMV expression vector. […] Images were acquired from Carl Zeiss confocal microscope system, and the quantification of fluorescent intensity in the nuclear and cytosolic compartments was shown as relative percentage in the graph at the left. […] Tumor size was measure with a caliper at the indicated time points. […] The tumor size was measured with a caliper at the indicated time points. […]
The ratio of MSI1 expression in each group was presented in the graph. […] Hypoxia-induced apoptosis was withdrawn by the over-expression of wild-type MSI1 but not in mutant MSI1 groups determined by annexin V staining, MTT assay, and colony forming assay. […]

[2] = molecular target: T1, His-tagged AGO2 recombinant protein (Homo sapiens, UniProt Q9UKV8); test: PepSpot high-throughput peptide tiling array; type: binding; conditions: 27 peptides of MSI1 C-terminus
T1 construct: made in house; host or cells: High Five insect cells (baculovirus, Bac-To-Bac; virus made in Sf9)
T1 sequence (Q9UKV8 whole entry): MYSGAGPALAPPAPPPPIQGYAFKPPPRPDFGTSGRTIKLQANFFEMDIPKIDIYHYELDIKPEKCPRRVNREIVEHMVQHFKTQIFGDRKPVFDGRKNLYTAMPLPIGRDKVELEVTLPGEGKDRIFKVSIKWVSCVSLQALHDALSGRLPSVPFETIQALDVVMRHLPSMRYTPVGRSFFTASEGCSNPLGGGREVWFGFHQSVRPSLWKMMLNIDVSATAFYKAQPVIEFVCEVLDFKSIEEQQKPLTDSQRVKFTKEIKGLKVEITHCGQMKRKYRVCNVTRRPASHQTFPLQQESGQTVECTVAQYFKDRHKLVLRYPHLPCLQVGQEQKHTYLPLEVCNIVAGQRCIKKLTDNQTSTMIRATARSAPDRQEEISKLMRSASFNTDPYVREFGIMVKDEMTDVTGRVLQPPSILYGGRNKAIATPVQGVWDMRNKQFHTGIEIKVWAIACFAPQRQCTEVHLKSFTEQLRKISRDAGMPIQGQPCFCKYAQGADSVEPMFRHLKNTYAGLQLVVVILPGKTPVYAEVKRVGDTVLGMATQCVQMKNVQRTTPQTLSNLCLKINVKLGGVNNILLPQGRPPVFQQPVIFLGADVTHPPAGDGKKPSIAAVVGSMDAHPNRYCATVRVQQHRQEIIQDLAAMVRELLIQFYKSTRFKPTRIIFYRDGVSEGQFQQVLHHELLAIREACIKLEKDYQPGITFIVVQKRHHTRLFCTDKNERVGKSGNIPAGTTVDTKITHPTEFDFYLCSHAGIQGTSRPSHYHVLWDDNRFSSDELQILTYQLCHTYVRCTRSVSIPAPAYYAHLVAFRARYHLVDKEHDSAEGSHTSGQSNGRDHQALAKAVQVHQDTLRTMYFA
Experimental: (§1) The relative orientation of peptide-binding site and AGO2 pocket was depicted. […] The recombinant AGO2 protein was immobilized on CM5 chip and incubated with a serial dilution (from 625 to 10000 nM) of the two peptides, respectively. The association and dissociation between TAT-11, TAT-26 and immobilized AGO2 were tested by SPR (top). The association rate constant (Ka), dissociation rate constant (Kd), and equilibrium dissociation constant (KD) were calculated and presented in the chart (bottom).
To rapidly screen the putative binding hotspots along the C-terminus of MSI1, we mimicked the epitope screening method by dotting the synthetic short peptides on nitrocellulose membrane and incubated with purified AGO2 protein^39. The C-terminus of MSI1 (201-262) was divided into 27 individual synthetic peptides with N-terminal amine attached on the nitrocellulose. Each peptide is 15 amino acids in length and has […] overlapping with the previous neighboring peptide (Suppl. Table IV). The purchased PepSpot membrane (JPT peptide technologies, Berlin, Germany) was firstly rinsed by methanol for 5 minutes, followed by Tris buffer saline supplemented with 0.1% Tween-20 (TBS-T) washing thrice. […]

05 MG cells = test: Cellular uptake of fluorescein labeled peptides, fluorescence read by ELISA reader; conditions: for time to significant cellular uptake: 05 MG cells; for EC50: read-out: half-uptake concentration (EC50), fluorescein labeled peptides, 05 MG cell line
Experimental: The biological activity of peptides was tested in 05 MG cell line. The cells were treated with different concentration of fluorescein labeled peptides and was measured using ELISA reader.
(§2) After 0.5, 1, 2, 4 and 6 hours, cell lysates were collected and the fluorescent intensity was detected by ELISA reader. N=3 at each time point. […] Cells were washed and observed under microscopy at the indicated time points. […] To facilitate comparison of intake and degradation dynamics, mean fluorescence values were normalized to stating fluorescence. All data represent three independent experiments.

[3] = test system: MSI1/AGO2 downstream mRNA; test: qRT-PCR of downstream mRNA targets of MSI1-AGO2, hypoxia versus normoxia; type: cell-based, human; conditions: six targets
Experimental: FIG. 4A provides a schematic illustrating the full-length and C-terminal (C-term) fragment of human MSI1. The construct of MSI1 C-term was sub-cloned into p-3×Flag-Myc-CMV expression vector. […] Quantification of the fold changes of binding signals was performed by normalizing IP signals to IgG-precipitated controls. The peaks indicated MSI1 or AGO2 palindromic-binding sequence. […] Purified total RNA was subjected to RT-PCR using primers specific for NF2, TP53, CDKN1A, CCND1, CDK4, and HELLS. The mRNA levels under hypoxia were normalized with that under normoxia and presented as relative fold changes in the chart. […] The relative fold change of the number of viable cells in each day was presented in the graph. […] Xenograft tumor size was monitored from day 2 after injection of Flag-control or Flag-C-term. […] Tumor size was then monitored for 22 days. The expression of MIS1-C-term in the xenograft tumor tissue was assessed by Western blot. […] […]
Oligonucleotide specificity was computer tested (BLAST, National Center for Biotechnology Information. Bethesda. Md., USA) by homology search with the human genome and later confirmed by melting curve analysis. […] Signals were detected using 7900HT Fast Real-time PCR system (Applied Biosystems, Foster City, Calif., USA). […]

MSI1/AGO2 interaction [4] = molecular target: T2, MSI1/AGO2 interaction (Homo sapiens, UniProt Q9UKV8); test: Split Gaussia luciferase reconstitution reporter assay; type: cell-based; parameters: expressed in transfected cells; lysates used for the in vitro read-out; conditions: 10 μM peptide; in vitro and in vivo
T2 sequence (Q9UKV8 whole entry): as above
Experimental: as §1
FIG. 14A provides schematic presentation of the constructs of full-length, C-terminus, and N-terminus of MSI1 as well as wild-type AGO2 for purifying recombinant proteins. FIG. 14B provides pull-down assay with recombinant MSI1 and AGO2 proteins showing that the C-terminus of MSI1 is essential for the direct MSI1/AGO2 interaction. […] FIG. 14D provides the schematic illustration of the split luciferase reconstitution imaging system to real-time monitor the interaction between MSI1 and AGO2.
To use Gaussia luciferase (Gluc) for detecting protein-protein interaction, we split Gaussia luciferase into NGluc (N-terminal Gluc, 106 a.a.) and CGluc (C-terminal Glue. 79 a.a.)^53,54. The two fragments were amplified by polymerase chain reaction (PCR) and subjected to construct fusion protein with MSI1 and AGO2 by the pcDNA 3.1 and pCMV backbone, respectively. Each fusion protein contains a flexible linker (GGGGS)2 between the protein and polypeptides of split luciferase^55,56. Stable cell lines were obtained by stable transfection of both fusion protein expressive plasmids in 05 MG GBM cell line with Hygromycin B (Sigma Aldrich Co., St. Louis, […]., USA) and G418 sulfate (Merck Co., Berlin, Germany). […] The bioluminescent signals were acquired by Wallac 1420 Victor^2 Microplate Reader (Perkin Elmer, Waltham. Mass., USA) equipped with auto-dispenser to avoid rapid decay of GLuc. […] The region of interests (ROI) was automatically chosen by the Living Image 4.2 software and quantified as photon flux in a certain area per second (photons/s/cm^2).

in vitro = conditions: human
Experimental: as §2

[5] = molecular target: T1, His-tagged AGO2 recombinant protein; test: Affinity measurement by surface plasmon resonance (SPR); type: binding; conditions: AGO2 immobilized on CM5 chip; peptide serial dilution 625 to 10000 nM; Langmuir 1:1 model; read-out: equilibrium dissociation constant (KD)
Experimental: as §1
A Biacore T200 (GE Healthcare) was used to study the binding affinity of the TAT-11 and TAT-26 peptides with recombinant His-tagged AGO2 protein. The recombinant His-AGO2 and TAT peptides were diluted in HBS-P buffer ([…], 150 mM NaCl and 0.005% P20, pH 7.4). To evaluate the binding affinity, recombinant His-AGO2 was immobilized on a CM5 sensor chip (GE Healthcare, BR100012) via amine coupling (˜7000 RU) for 3600 sec at rate of 5 μl/mins, followed by dissociation for 600 s. After injection of each peptide, the surface was regenerated with an injection of 10 mM NaOH. All sensorgrams were double referenced by subtracting the surface effect from the control flow […] and the buffer effect form the blank buffer. The kinetic values Ka, Kd and KD were obtained using Biacore […] Evaluation Software (GE healthcare) assuming the Langmuir 1:1 binding model.

MSI1/AGO2 interaction [6] = molecular target: T2, MSI1/AGO2 interaction; test: Co-immunoprecipitation of endogenous MSI1 and AGO2 under hypoxia; type: cell-based; parameters: endogenous in cells; conditions: 10 μM peptide, hypoxic condition

binding of recombinant AGO2 to arrayed peptide [2] | Molecule | MSI1 translocation into the cytosol [1] | time to significant cellular uptake (05 MG cells) | EC50 (05 MG cells) [µM] | effect of MSI1/AGO2 binding on downstream mRNA [3] | effect on bioluminescent signal of split Gaussia luciferase (MSI1/AGO2 interaction [4]) | half-life (in vitro) [h] | Kd [5] [µM] | effect on MSI1/AGO2 interaction (co-IP immunoblot) (MSI1/AGO2 interaction [6])
– | CCC(=C/[C@H](C)C/C=C/C(C)=C/[C@@H](C)C(=O)[C@@H](C)[C@H](O)[C@@H](C)C/C(C)=C/C(=O)O)/C=C/[C@@H]1OC(=O)C=C[C@@H]1C [Leptomycin B] | strongly reduced MSI1 translocation into the cytosol | – | – | – | – | – | – | –
preferentially bound | YQFPEFRVERTPLPS [compound 11] | – | – | – | – | – | – | – | –
preferentially bound | HSLGGPLIATAFTNG [compound 26] | – | – | – | – | – | – | – | –
– | HSLGGPLIATAFTNGGRKKRRQRRRPPQ [TAT-26] | – | within one hour | 9.02 | reversed | dramatically turned down the bioluminescent signal in vitro and in vivo | ≤ 4 | 4.63 | effectively abrogated the MSI1/AGO2 interaction
– | YQFPEFRVERTPLPSGRKKRRQRRRPPQ [TAT-11] | – | within one hour | 9.1 | reversed | dramatically turned down the bioluminescent signal in vitro and in vivo | ≤ 4 | 3.33 | effectively abrogated the MSI1/AGO2 interaction
